Laboratory results from US10266526B2, “Substituted 1,2,3-triazoles as SMYD inhibitors for treating cancer” (EPIZYME, INC., priority 2014, dated 2019).

Target: SMYD3 (Homo sapiens (Human), UniProt Q9H7B4)
Assay: SMYD3 biochemical assay (SMYD3 enzyme assay on MEKK2 protein substrate, 3H-SAM scintillation proximity assay)
Conditions: read-out: SMYD3 Biochem IC50 (μM)*
Source text: S-adenosylmethionine (SAM), S-adenosylhomocysteine (SAH), Tris, Tween20, dimethylsulfoxide (DMSO), bovine skin gelatin (BSG), and Tris(2-carboxyethyl)phosphine hydrochloride solution (TCEP) were purchased from Sigma-Aldrich at the highest level of purity possible. ^3H-SAM was purchase from American Radiolabeled Chemicals with a specific activity of 80 Ci/mmol. 384-well opaque white OptiPlates and SPA beads (Perkin Elmer, catalog # RPNQ0013) were purchased from PerkinElmer.
N-terminally GST-tagged MEKK2 (MAP3K2) protein corresponding to reference sequence AAF63496.3 was purchased from Life Technologies (catalog # PV4010). This protein was expressed in High Five insect cells and purified to >85% purity. Protein identity was confirmed by MS/MS analysis after proteolytic digestion. The protein sequence used was:
Full-length human SMYD3 isoform 1 (BAB86333) was inserted into a modified pET21b plasmid containing a His6 tag and TEV and SUMO cleavage sites.
E. coli (BL21 codonplus RIL strain, Stratagene) were transformed with plasmid pEPZ553 by mixing competent cells and plasmid DNA and incubating on ice for 30 minutes followed by heat shock at 42° C. for 1 minute and cooling on ice for 2 minutes. Transformed cells were grown and selected on LB agar with 100 μg/mL ampicillin and 17 μg/mL chloramphenicol at 37° C. overnight. A single clone was used to inoculate 200 mL of LB medium with 100 μg/mL ampicillin and 17 μg/mL chloramphenicol and incubated at 37° C. on an orbital shaker at 180 rpm. Once in log growth, the culture was diluted 1:100 into 2 L of LB medium and grown until OD600 was about 0.3 after which the culture was incubated at 15° C. and 160 rpm. Once OD600 reached about 0.4, IPTG was added to a final concentration of 0.1 mM and the cells were grown overnight at 15° C. and 160 rpm. Cells were harvested by centrifugation at 8000 rpm, for 4 minutes at 4° C. and stored at −80° C. for purification.
The column was washed with Buffer B (Buffer A plus 20 mM imidazole) and His-tagged SMYD3 was eluted with Buffer C (Buffer A plus 300 mM imidazole). The His tag, TEV and SUMO cleavage sites were removed generating native SMYD3 by addition of ULP1 protein at a ratio of 1:200 (ULP1:SMYD3). Imidazole was removed by dialysis overnight in Buffer A. The dialyzed solution was applied to a second Nickel column and the native SMYD3 protein was collected from the column flow-through. The flow-through was dialyzed in Buffer D (25 mM Tris, 5% glycerol, 5 mM β-mercaptoethanol, 50 mM NaCl, pH7.8) and ULP1 was removed using a Q sepharose fast flow column.
General Procedure for SMYD3 Enzyme Assays on MEKK2 Protein Substrate
The assays were all performed in a buffer consisting of 25 mM Tris-Cl pH 8.0, 1 mM TCEP, 0.005% BSG, and 0.005% Tween 20, prepared on the day of use. […] DMSO (1 ul) was added to Columns 11, 12, 23, 24, rows A-H for the maximum signal control and 1 ul of SAH, a known product and inhibitor of SMYD3, was added to columns 11, 12, 23, 24, rows I-P for the minimum signal control. A cocktail (40 ul) containing the SMYD3 enzyme was added by Multidrop Combi (Thermo-Fisher). The compounds were allowed to incubate with SMYD3 for 30 min at room temperature, then a cocktail (10 ul) containing SAM and MEKK2 was added to initiate the reaction (final volume=51 ul). […] The assays were stopped by the addition of non-radiolabeled SAM (10 ul) to a final concentration of 100 uM, which dilutes the ^3H-SAM to a level where its incorporation into MEKK2 is no longer detectable. Radiolabeled MEKK2 was detected using a scintillation proximity assay (SPA). 10 uL of a 10 mg/mL solution of SPA beads in 0.5 M citric acid was added and the plates centrifuged at 600 rpm for 1 min to precipitate the radiolabeled MEKK2 onto the SPA beads.

Chain of SMYD3 (Q9H7B4 whole entry): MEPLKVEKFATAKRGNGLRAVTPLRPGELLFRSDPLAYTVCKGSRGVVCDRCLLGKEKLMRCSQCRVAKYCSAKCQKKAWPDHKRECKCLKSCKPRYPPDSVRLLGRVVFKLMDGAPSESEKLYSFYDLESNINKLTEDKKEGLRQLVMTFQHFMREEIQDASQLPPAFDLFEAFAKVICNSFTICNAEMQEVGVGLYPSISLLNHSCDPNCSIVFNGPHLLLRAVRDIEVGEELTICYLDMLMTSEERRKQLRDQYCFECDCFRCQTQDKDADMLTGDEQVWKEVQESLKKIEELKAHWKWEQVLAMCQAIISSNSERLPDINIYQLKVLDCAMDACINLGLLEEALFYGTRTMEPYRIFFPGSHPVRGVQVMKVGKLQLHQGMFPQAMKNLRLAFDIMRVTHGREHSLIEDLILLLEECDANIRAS

Row | SMILES | IC50
1 | N[C@H]1CC[C@H](NC(=O)c2ccc3c(c2)OCC(=O)N3)CC1 [compound 19, N-((1r,4r)-4-aminocyclohexyl)-3-oxo-3,4-dihydro-2H-benzo[b][1,4]oxazine-7-carboxamide] | 102 µM
2 | CC(=O)c1cccc(C(=O)N[C@H]2CC[C@H](N)CC2)c1 [compound 23, 3-acetyl-N-((1r,4r)-4-aminocyclohexyl)benzamide] | 91.5 µM
3 | CC(=O)Nc1cccc(C(=O)N[C@H]2CC[C@H](N)CC2)c1 [compound 24, 3-acetamido-N-((1r,4r)-4-aminocyclohexyl)benzamide] | 80.3 µM
4 | CCC(=O)Nc1cccc(C(=O)N[C@H]2CC[C@H](N)CC2)c1 [compound 25, N-((1r,4r)-4-aminocyclohexyl)-3-propionamidobenzamide] | 84.3 µM
5 | N[C@H]1CC[C@H](NC(=O)c2cccc(CO)c2)CC1 [compound 26, N-((1r,4r)-4-aminocyclohexyl)-3-(hydroxymethyl)benzamide] | 86 µM
6 | CCn1nc(C)cc1C(=O)N[C@H]1CC[C@H](N)CC1 [compound 27, N-((1r,4r)-4-aminocyclohexyl)-1-ethyl-3-methyl-1H-pyrazole-5-carboxamide] | 102 µM
7 | Cc1cc(C(=O)N[C@H]2CC[C@H](N)CC2)n(-c2ccccc2)n1 [compound 28, N-((1r,4r)-4-aminocyclohexyl)-3-methyl-1-phenyl-1H-pyrazole-5-carboxamide] | 111 µM
8 | Cc1cc(C(=O)NC(c2ccccc2)C2CCNCC2)n(Cc2ccccc2)n1 (stereo not shown) [compound 32, 1-benzyl-3-methyl-N-(phenyl(piperidin-4-yl)methyl)-1H-pyrazole-5-carboxamide] | 91.3 µM
9 | Nc1cc(C(=O)NC(c2ccccc2)C2CCNCC2)n[nH]1 (stereo not shown) [compound 45, 5-amino-N-(phenyl(piperidin-4-yl)methyl)-1H-pyrazole-3-carboxamide] | 137 µM
10 | Cn1nc(N)cc1C(=O)N[C@H]1CC[C@H](N)CC1 [compound 48, 3-amino-N-((1r,4r)-4-aminocyclohexyl)-1-methyl-1H-pyrazole-5-carboxamide] | 117 µM
11 | CCC(=O)c1c[nH]c(C(=O)Nc2ccc(CN)cc2)c1 [compound 52, N-(4-(aminomethyl)phenyl)-4-propionyl-1H-pyrrole-2-carboxamide] | 108 µM
12 | CCCCC1CC1C(=O)N[C@H]1CC[C@H](N)CC1 (stereo partly shown) [compound 53, N-((1r,4r)-4-aminocyclohexyl)-2-butylcyclopropane-1-carboxamide] | 122 µM
13 | CCc1ccc(C(=O)NC(c2ccccc2)C2CCNCC2)s1 (stereo not shown) [compound 55, 5-ethyl-N-(phenyl(piperidin-4-yl)methyl)thiophene-2-carboxamide] | 116 µM
14 | CCc1ccc(C(=O)Nc2ccc(CN)cc2)s1 [compound 56, N-(4-(aminomethyl)phenyl)-5-ethylthiophene-2-carboxamide] | 138 µM
15 | Cc1cc2[nH]c(C(=O)N[C@H]3CC[C@H](N)CC3)cc2o1 [compound 57, N-((1r,4r)-4-aminocyclohexyl)-2-methyl-4H-furo[3,2-b]pyrrole-5-carboxamide] | 134 µM
16 | Cc1cc2[nH]c(C(=O)NC3CCNCC3)cc2o1 [compound 58, 2-methyl-N-(piperidin-4-yl)-4H-furo[3,2-b]pyrrole-5-carboxamide] | 76.1 µM
17 | CCc1ncc(C(=O)N[C@H]2CC[C@H](N)CC2)s1 [compound 59, N-((1r,4r)-4-aminocyclohexyl)-2-ethylthiazole-5-carboxamide] | 184 µM
18 | CCc1ncc(C(=O)NC(c2ccccc2)C2CCNCC2)s1 (stereo not shown) [compound 60, 2-ethyl-N-(phenyl(piperidin-4-yl)methyl)thiazole-5-carboxamide] | 150 µM
19 | CCc1ncc(C(=O)Nc2ccc(CN)cc2)s1 [compound 61, N-(4-(aminomethyl)phenyl)-2-ethylthiazole-5-carboxamide] | 114 µM
20 | CC(CC(=O)N[C@H]1CC[C@H](N)CC1)C1CC1 (stereo partly shown) [compound 62, N-((1r,4r)-4-aminocyclohexyl)-3-cyclopropylbutanamide] | 155 µM

These reach a lower IC50. Values come first.

Row | IC50 | SMILES
21 | 69.2 µM | CCn1nc(C)cc1C(=O)NC(c1ccccc1)C1CCNCC1 (stereo not shown) [compound 30, 1-ethyl-3-methyl-N-(phenyl(piperidin-4-yl)methyl)-1H-pyrazole-5-carboxamide]
22 | 63.7 µM | O=C(NC1CCNCC1)c1ccc2ncc(=O)[nH]c2c1 [compound 46, 3-oxo-N-(piperidin-4-yl)-3,4-dihydroquinoxaline-6-carboxamide]
23 | 60.4 µM | N[C@H]1CC[C@H](NC(=O)c2ccc3nc(O)cnc3c2)CC1 [compound 43, N-((1r,4r)-4-aminocyclohexyl)-2-hydroxyquinoxaline-6-carboxamide]
24 | 59.9 µM | CCc1cc(C(=O)N[C@H]2CC[C@H](N)CC2)n(C)n1 [compound 37, N-((1r,4r)-4-aminocyclohexyl)-3-ethyl-1-methyl-1H-pyrazole-5-carboxamide]
25 | 57.5 µM | CCc1cccc(C(=O)N[C@H]2CC[C@H](N)CC2)c1 [compound 21, N-((1r,4r)-4-aminocyclohexyl)-3-ethylbenzamide]
26 | 56.7 µM | Cc1cc(C(=O)NC(c2ccccc2)C2CCNCC2)n(-c2ccccc2)n1 (stereo not shown) [compound 31, 3-methyl-1-phenyl-N-(phenyl(piperidin-4-yl)methyl)-1H-pyrazole-5-carboxamide]
27 | 49.9 µM | CCc1ccc(C(=O)N[C@H]2CC[C@H](N)CC2)s1 [compound 54, N-((1r,4r)-4-aminocyclohexyl)-5-ethylthiophene-2-carboxamide]
28 | 31.3 µM | CCc1cncc(C(=O)N[C@H]2CC[C@H](N)CC2)c1 [compound 22, N-((1r,4r)-4-aminocyclohexyl)-5-ethylnicotinamide]
29 | 23.9 µM | O=C1CNc2cc(C(=O)NC3CCNCC3)ccc2N1 [compound 39, 2-oxo-N-(piperidin-4-yl)-1,2,3,4-tetrahydroquinoxaline-6-carboxamide]
30 | 20.5 µM | CCc1ccnc(C(=O)N[C@H]2CC[C@H](N)CC2)c1 [compound 38, N-((1r,4r)-4-aminocyclohexyl)-4-ethylpicolinamide]
31 | 16 µM | N[C@H]1CC[C@H](NC(=O)c2ccc3c(c2)NC(=O)CO3)CC1 [compound 20, N-((1r,4r)-4-aminocyclohexyl)-3-oxo-3,4-dihydro-2H-benzo[b][1,4]oxazine-6-carboxamide]
32 | 14.1 µM | O=C1Cc2cc(C(=O)NC(c3ccccc3)C3CCNCC3)ccc2N1 (stereo not shown) [compound 44, 2-oxo-N-(phenyl(piperidin-4-yl)methyl)indoline-5-carboxamide]
33 | 11.9 µM | N[C@H]1CC[C@H](NC(=O)c2cnc3c(c2)CC(=O)N3)CC1 [compound 47, N-((1r,4r)-4-aminocyclohexyl)-2-oxo-2,3-dihydro-1H-pyrrolo[2,3-b]pyridine-5-carboxamide]
34 | 3.31 µM | N[C@H]1CC[C@H](NC(=O)c2ccc3c(c2)CC(=O)N3)CC1 [compound 42, N-((1r,4r)-4-aminocyclohexyl)-2-oxoindoline-5-carboxamide]
35 | 2.84 µM | N[C@H]1CC[C@H](NC(=O)c2ccc3c(c2)CC(=O)N3)CC1 [compound 40, N-((1r,4r)-4-aminocyclohexyl)-2-oxoindoline-5-carboxamide]
36 | 0.86 µM | N[C@@H](Cc1ccc(O)cc1)C(=O)N1CCC(NC(=O)c2ccc3c(c2)CC(=O)N3)CC1 [compound 49, N-(1-(L-tyrosyl)piperidin-4-yl)-2-oxoindoline-5-carboxamide]
37 | 0.69 µM | N[C@@H](Cc1c[nH]c2ccccc12)C(=O)N1CCC(NC(=O)c2ccc3c(c2)CC(=O)N3)CC1 [compound 51, N-(1-(L-tryptophyl)piperidin-4-yl)-2-oxoindoline-5-carboxamide]
